ChEMBL document CHEMBL3137667, “[Drug-induced liver injury; fourteenth updated edition of the bibliographic database of liver injuries and related drugs]” (Gastroenterol Clin Biol, 2004)

How the values were obtained:
[1] = human, serum
[2] = human
[3] = Highest frequency of moderate liver toxicity observed during clinical trials, expressed as a percentage. [column '% BIOL' in source]; conditions: human
[4] = Times to onset, minimal and maximal, observed in the indexed observations. [column 'DELAI' in source]; conditions: human
[5] = human, serum, 4383 h
[6] = human; remark: listed apart in the source
[7] = human; remark: listed apart in the source
[8] = human; remark: listed apart in the source
[9] = human; remark: listed apart in the source
[10] = Highest frequency of acute liver toxicity observed during clinical trials, expressed as a percentage. [column '% AIGUE' in source]; conditions: human
[11] = human, serum; remark: listed apart in the source
[12] = human; remark: listed apart in the source
[13] = human; remark: listed apart in the source
[14] = human; remark: listed apart in the source
[15] = human; remark: listed apart in the source
[16] = Presence of at least one case with successful reintroduction. [column 'REINT' in source]; conditions: human
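Wherever Hepatotoxicity (association with vascular disease) is given: count of indexed literature references reporting vascular liver injury in humans, e.g. peliosis hepatitis, hepatic veno-occlusive disease or Budd-Chiari syndrome.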
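Wherever Hepatotoxicity (benign tumour) is given: value is a count of indexed literature references citing a benign tumour confirmed by histopathology.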
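Wherever Hepatotoxicity (choleostasis) is given: human cholestatic liver injury, shown by histopathology or by peak ALT or AST elevation over alkaline phosphatase ratio below 2, value counts indexed literature reports.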
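Wherever Hepatotoxicity (chronic liver disease) is given: chronic liver injury confirmed by histopathology or persistently raised serum aminotransferase activity beyond 6 months, value given as the count of indexed literature references.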
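Wherever Hepatotoxicity (cirrhosis) is given: value is a count of indexed literature references reporting cirrhosis confirmed by histopathology.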
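Wherever Hepatotoxicity (cytolytic) is given: human cytolytic liver injury, shown by histopathology or by a ratio above 5 of peak ALT or AST elevation to alkaline phosphatase elevation, value counts indexed references.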
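Wherever Hepatotoxicity (granulomatous hepatitis) is given: value is a count of indexed literature references reporting granulomatous liver disease confirmed by histopathology.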
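Wherever Hepatotoxicity (malignant tumour) is given: malignant tumour confirmed by histopathology, value gives the count of indexed literature references reporting it.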
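Wherever Hepatotoxicity (severe hepatitis) is given: human clinical data: severe hepatitis, meaning potentially life-threatening liver failure or clinically observed cases, the value counts how many indexed literature references report it.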
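Wherever Hepatotoxicity (steatosis) is given: steatosis confirmed by histopathology, value is the count of indexed references.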

C/C=C(/CC)C(=O)NC(N)=O
Hepatotoxicity (acute) [1]: 1 | Hepatotoxicity (cirrhosis) [2]: 0 | Hepatotoxicity (moderate) [3]: 0% | Hepatotoxicity (time to onset) [4]: 3 weeks | Hepatotoxicity (chronic liver disease) [5]: 0 | Hepatotoxicity (severe hepatitis) [6]: 0 | Hepatotoxicity (malignant tumour) [7]: 0 | Hepatotoxicity (benign tumour) [8]: 0 | Hepatotoxicity (steatosis) [9]: 0 | Hepatotoxicity (acute) [10]: 0% | Hepatotoxicity (moderate) [11]: 0 | Hepatotoxicity (association with vascular disease) [12]: 0 | Hepatotoxicity (cytolytic) [13]: 0 | Hepatotoxicity (granulomatous hepatitis) [14]: 0 | Hepatotoxicity (choleostasis) [15]: 0 | Hepatotoxicity (successful reintroduction) [16]: yes

Nc1nc(N)c2nc(-c3ccccc3)c(N)nc2n1
Hepatotoxicity (acute) [1]: 1 | Hepatotoxicity (cirrhosis) [2]: 0 | Hepatotoxicity (moderate) [3]: 0% | Hepatotoxicity (time to onset) [4]: 2 days - 3 weeks | Hepatotoxicity (chronic liver disease) [5]: 0 | Hepatotoxicity (severe hepatitis) [6]: 1 | Hepatotoxicity (malignant tumour) [7]: 0 | Hepatotoxicity (benign tumour) [8]: 0 | Hepatotoxicity (steatosis) [9]: 0 | Hepatotoxicity (acute) [10]: 0% | Hepatotoxicity (moderate) [11]: 1 | Hepatotoxicity (association with vascular disease) [12]: 0 | Hepatotoxicity (cytolytic) [13]: 1 | Hepatotoxicity (granulomatous hepatitis) [14]: 0 | Hepatotoxicity (choleostasis) [15]: 0 | Hepatotoxicity (successful reintroduction) [16]: yes

N[C@@H](Cc1ccc(N(CCCl)CCCl)cc1)C(=O)O
Hepatotoxicity (acute) [1]: 2 | Hepatotoxicity (cirrhosis) [2]: 0 | Hepatotoxicity (moderate) [3]: 8% | Hepatotoxicity (time to onset) [4]: 6 days - 7 weeks | Hepatotoxicity (chronic liver disease) [5]: 0 | Hepatotoxicity (severe hepatitis) [6]: 0 | Hepatotoxicity (malignant tumour) [7]: 0 | Hepatotoxicity (benign tumour) [8]: 0 | Hepatotoxicity (steatosis) [9]: 0 | Hepatotoxicity (acute) [10]: 0% | Hepatotoxicity (moderate) [11]: 1 | Hepatotoxicity (association with vascular disease) [12]: 2 | Hepatotoxicity (cytolytic) [13]: 0 | Hepatotoxicity (granulomatous hepatitis) [14]: 0 | Hepatotoxicity (choleostasis) [15]: 1 | Hepatotoxicity (successful reintroduction) [16]: yes

O=C(O)COC(=O)Cc1ccccc1Nc1c(Cl)cccc1Cl [ACECLOFENAC]
Hepatotoxicity (acute) [1]: 3 | Hepatotoxicity (cirrhosis) [2]: 0 | Hepatotoxicity (moderate) [3]: 3.3% | Hepatotoxicity (time to onset) [4]: 1 week - 3 weeks | Hepatotoxicity (chronic liver disease) [5]: 0 | Hepatotoxicity (severe hepatitis) [6]: 0 | Hepatotoxicity (malignant tumour) [7]: 0 | Hepatotoxicity (benign tumour) [8]: 0 | Hepatotoxicity (steatosis) [9]: 0 | Hepatotoxicity (acute) [10]: 0% | Hepatotoxicity (moderate) [11]: 5 | Hepatotoxicity (association with vascular disease) [12]: 0 | Hepatotoxicity (cytolytic) [13]: 2 | Hepatotoxicity (granulomatous hepatitis) [14]: 0 | Hepatotoxicity (choleostasis) [15]: 0 | Hepatotoxicity (successful reintroduction) [16]: yes

CCC1(c2ccc(N)cc2)CCC(=O)NC1=O (stereo not given) [AMINOGLUTETHIMIDE]
Hepatotoxicity (acute) [1]: 4 | Hepatotoxicity (cirrhosis) [2]: 0 | Hepatotoxicity (moderate) [3]: 67% | Hepatotoxicity (time to onset) [4]: 1 day - 10 weeks | Hepatotoxicity (chronic liver disease) [5]: 0 | Hepatotoxicity (severe hepatitis) [6]: 0 | Hepatotoxicity (malignant tumour) [7]: 0 | Hepatotoxicity (benign tumour) [8]: 0 | Hepatotoxicity (steatosis) [9]: 0 | Hepatotoxicity (acute) [10]: 0% | Hepatotoxicity (moderate) [11]: 4 | Hepatotoxicity (association with vascular disease) [12]: 0 | Hepatotoxicity (cytolytic) [13]: 2 | Hepatotoxicity (granulomatous hepatitis) [14]: 0 | Hepatotoxicity (choleostasis) [15]: 3 | Hepatotoxicity (successful reintroduction) [16]: yes

CNC1=Nc2ccc(Cl)cc2C(c2ccccc2)=[N+]([O-])C1 [CHLORDIAZEPOXIDE]
Hepatotoxicity (cirrhosis) [2]: 0 | Hepatotoxicity (moderate) [3]: 11% | Hepatotoxicity (time to onset) [4]: 2 days - 3 years | Hepatotoxicity (chronic liver disease) [5]: 0 | Hepatotoxicity (severe hepatitis) [6]: 0 | Hepatotoxicity (malignant tumour) [7]: 0 | Hepatotoxicity (benign tumour) [8]: 0 | Hepatotoxicity (steatosis) [9]: 0 | Hepatotoxicity (acute) [10]: 0% | Hepatotoxicity (moderate) [11]: 3 | Hepatotoxicity (association with vascular disease) [12]: 0 | Hepatotoxicity (cytolytic) [13]: 1 | Hepatotoxicity (granulomatous hepatitis) [14]: 0 | Hepatotoxicity (choleostasis) [15]: 3 | Hepatotoxicity (successful reintroduction) [16]: yes

CCc1c2c(nc3ccc(OC(=O)N4CCC(N5CCCCC5)CC4)cc13)-c1cc3c(c(=O)n1C2)COC(=O)[C@]3(O)CC [IRINOTECAN]
Hepatotoxicity (acute) [1]: 3 | Hepatotoxicity (cirrhosis) [2]: 0 | Hepatotoxicity (moderate) ([3]; Liver): 13.3% | Hepatotoxicity (chronic liver disease) [5]: 0 | Hepatotoxicity (severe hepatitis) ([6]; Liver): 0 | Hepatotoxicity (malignant tumour) [7]: 0 | Hepatotoxicity (benign tumour) [8]: 0 | Hepatotoxicity (steatosis) [9]: 0 | Hepatotoxicity (acute) ([10]; Liver): 4.2% | Hepatotoxicity (moderate) [11]: 12 | Hepatotoxicity (association with vascular disease) [12]: 0 | Hepatotoxicity (cytolytic) [13]: 1 | Hepatotoxicity (granulomatous hepatitis) [14]: 0 | Hepatotoxicity (choleostasis) [15]: 2 | Hepatotoxicity (successful reintroduction) [16]: yes

O=[N+]([O-])O[C@H]1CO[C@H]2[C@@H]1OC[C@H]2O[N+](=O)[O-] [ISOSORBIDE DINITRATE]
Hepatotoxicity (acute) [1]: 1 | Hepatotoxicity (cirrhosis) [2]: 0 | Hepatotoxicity (moderate) [3]: 0% | Hepatotoxicity (chronic liver disease) [5]: 0 | Hepatotoxicity (severe hepatitis) [6]: 0 | Hepatotoxicity (malignant tumour) [7]: 0 | Hepatotoxicity (benign tumour) [8]: 0 | Hepatotoxicity (steatosis) [9]: 0 | Hepatotoxicity (acute) [10]: 0% | Hepatotoxicity (moderate) [11]: 1 | Hepatotoxicity (association with vascular disease) [12]: 0 | Hepatotoxicity (cytolytic) [13]: 0 | Hepatotoxicity (granulomatous hepatitis) [14]: 0 | Hepatotoxicity (choleostasis) [15]: 0 | Hepatotoxicity (successful reintroduction) [16]: yes

COc1c2occc2cc2ccc(=O)oc12 [METHOXSALEN]
Hepatotoxicity (cirrhosis) [2]: 0 | Hepatotoxicity (moderate) ([3]; Liver): 0% | Hepatotoxicity (time to onset) [4]: 2 hours - 5 months | Hepatotoxicity (chronic liver disease) [5]: 0 | Hepatotoxicity (severe hepatitis) ([6]; Liver): 1 | Hepatotoxicity (malignant tumour) [7]: 0 | Hepatotoxicity (benign tumour) [8]: 0 | Hepatotoxicity (steatosis) [9]: 0 | Hepatotoxicity (acute) ([10]; Liver): 0% | Hepatotoxicity (moderate) [11]: 1 | Hepatotoxicity (association with vascular disease) [12]: 0 | Hepatotoxicity (cytolytic) [13]: 3 | Hepatotoxicity (granulomatous hepatitis) [14]: 0 | Hepatotoxicity (choleostasis) [15]: 0 | Hepatotoxicity (successful reintroduction) [16]: yes

COc1cc(Cc2cnc(N)nc2N)cc(OC)c1OC [TRIMETHOPRIM]
Hepatotoxicity (cirrhosis) [2]: 0 | Hepatotoxicity (moderate) ([3]; Liver): 5.9% | Hepatotoxicity (time to onset) [4]: 5 days - 24 days | Hepatotoxicity (chronic liver disease) [5]: 0 | Hepatotoxicity (severe hepatitis) ([6]; Liver): 1 | Hepatotoxicity (malignant tumour) [7]: 0 | Hepatotoxicity (benign tumour) [8]: 0 | Hepatotoxicity (steatosis) [9]: 0 | Hepatotoxicity (acute) ([10]; Liver): 0% | Hepatotoxicity (moderate) [11]: 1 | Hepatotoxicity (association with vascular disease) [12]: 0 | Hepatotoxicity (cytolytic) ([13]; Liver): 2 | Hepatotoxicity (granulomatous hepatitis) ([14]; Liver): 0 | Hepatotoxicity (choleostasis) ([15]; Liver): 5 | Hepatotoxicity (successful reintroduction) [16]: yes

COc1cc(C(=S)N2CCOCC2)cc(OC)c1OC [TRITIOZINE]
Hepatotoxicity (acute) [1]: 2 | Hepatotoxicity (cirrhosis) [2]: 0 | Hepatotoxicity (moderate) [3]: 3% | Hepatotoxicity (chronic liver disease) [5]: 0 | Hepatotoxicity (severe hepatitis) [6]: 0 | Hepatotoxicity (malignant tumour) [7]: 0 | Hepatotoxicity (benign tumour) [8]: 0 | Hepatotoxicity (steatosis) [9]: 0 | Hepatotoxicity (acute) [10]: 0% | Hepatotoxicity (moderate) [11]: 1 | Hepatotoxicity (association with vascular disease) [12]: 0 | Hepatotoxicity (cytolytic) [13]: 0 | Hepatotoxicity (granulomatous hepatitis) [14]: 0 | Hepatotoxicity (choleostasis) [15]: 0 | Hepatotoxicity (successful reintroduction) [16]: yes
